Measurements published in US20260102407A1, “TREATMENT METHODS” (priority 2020, published 2026).

Legend:
HMEC-1 = test: Endothelial repair following in vitro injury (scratch assay); assay type: cell-based, human; details: 0.6 μM, 5% FBS, 48 h
Procedure: Endothelial repair following in vitro injury. HMEC-1 (90-100% confluency) in 6-well plates were washed with PBS, and treated with 0.6 μM compound in MCDB131 containing 5% FBS. A sterile pointed toothpick was used to scrape the cell monolayer and the wells photographed under 4× objective at 0 h and 48 h. Cell regrowth in the denuded zone was determined using Image-Pro Plus (Cybernetics, USA).

FosB/ΔFosB = test: Western blot, IL-1β-inducible FosB/ΔFosB expression in HMEC-1; assay type: cell-based, human; details: 30 μM, 20 ng/ml IL-1β up to 4 h
Procedure: Western blot analysis with extracts of cells treated with IL-13. HMEC-1 (80-90% confluency) were arrested in serum-free MCDB131 medium (Invitrogen, MD) without any growth factor for 48 h. Cells were treated with 30 μM compound in serum-free medium for 4 h, and incubated with 20 ng/ml IL-1β (Sigma, cat. SRE3083) in serum-free medium with the same concentration of compound for up to 4 h, unless otherwise indicated. Total protein was harvested as previously described using RIPA buffer with protease inhibitors. Proteins were resolved on 4-20% (w/v) SDS-polyacrylamide gradient gels and transferred to Immobilon-P PVDF membranes. […] Chemiluminescence was detected using the Western Lightning Chemiluminescence system and ImageQuant™ LAS 4000 biomolecular imager. Band intensity in images generated with the LAS 4000 using the same settings were quantified by NIH ImageJ.

[1] = Solubility on dilution in medium containing serum; assay type: physicochemical
Solubility in water = assay type: physicochemical
[2] = molecular target: T1, Recombinant human His-MEK1 (Homo sapiens, UniProt Q02750); test: SPR (Biacore T200) on immobilised His-MEK1; assay type: binding; details: 15° C.; 20 mM HEPES, 150 mM NaCl, 5% DMSO pH 7.4
T1 construct: purchased ThermoFisher Scientific PV3303
T1 sequence (Q02750 whole entry): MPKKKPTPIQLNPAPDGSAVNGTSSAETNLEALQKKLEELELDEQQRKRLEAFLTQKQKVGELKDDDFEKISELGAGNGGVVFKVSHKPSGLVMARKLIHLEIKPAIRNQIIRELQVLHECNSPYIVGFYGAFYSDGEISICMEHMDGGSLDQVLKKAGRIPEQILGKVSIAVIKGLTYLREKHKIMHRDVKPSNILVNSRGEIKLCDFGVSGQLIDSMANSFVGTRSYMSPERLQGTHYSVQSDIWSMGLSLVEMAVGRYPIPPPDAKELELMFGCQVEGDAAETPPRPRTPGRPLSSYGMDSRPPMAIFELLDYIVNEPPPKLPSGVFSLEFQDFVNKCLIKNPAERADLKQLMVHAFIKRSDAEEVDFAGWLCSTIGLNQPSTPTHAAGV
Procedure: (§1) SPR. SPR was performed on a Biacore T200. The active and reference flow cells of a Xantec NIHMC Ni sensor chip were conditioned with 0.5M NaEDTA followed by 5 mM NiCl2 in immobilisation buffer (20 mM HEPES, 150 mM NaCl, pH 7.4). Recombinant human His-MEK1 and His-MEK2 (500 nM, ThermoFisher Scientific, cat. PV3303 and PV3615, respectively) were injected for 15 min at 10 μl min^−1 over separate active flow cells. All immobilisation was carried out at 25° C. Following immobilisation, the temperature was lowered to 15° C., and the buffer changed to 20 mM HEPES, 150 mM NaCl, 5% DMSO pH 7.4. Samples of PD98059 (2.5-30 μM in running buffer) and BT2 (1.25-15 μM) were injected at a flow rate of 30 μl min^−1 over immobilised MEK1 and MEK2. Solvent correction was applied to the data using a DMSO standard curve. Data were analysed using the Biacore T200 Evaluation software. Prior to SPR, limits of compound solubility were determined using ^1H 1D NMR.

[3] = molecular target: T2, Recombinant human His-MEK2 (Homo sapiens, UniProt P36507); test: SPR (Biacore T200) on immobilised His-MEK2; assay type: binding; details: 15° C.; 20 mM HEPES, 150 mM NaCl, 5% DMSO pH 7.4
T2 construct: purchased ThermoFisher Scientific PV3615
T2 sequence (P36507 whole entry): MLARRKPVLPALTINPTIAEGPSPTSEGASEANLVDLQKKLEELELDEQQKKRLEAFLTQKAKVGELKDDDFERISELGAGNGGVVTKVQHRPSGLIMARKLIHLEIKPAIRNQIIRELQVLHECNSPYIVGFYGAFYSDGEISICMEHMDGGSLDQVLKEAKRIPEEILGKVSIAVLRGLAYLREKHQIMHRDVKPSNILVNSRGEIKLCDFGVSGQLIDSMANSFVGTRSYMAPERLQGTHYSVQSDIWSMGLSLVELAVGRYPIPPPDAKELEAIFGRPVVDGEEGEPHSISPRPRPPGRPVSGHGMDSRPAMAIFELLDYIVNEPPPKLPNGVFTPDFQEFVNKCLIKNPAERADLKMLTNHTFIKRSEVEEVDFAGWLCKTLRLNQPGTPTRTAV
Procedure: as §1

[4] = test system: plasma levels of IL-1β, IL-2, IL-6, IL-4, IL-10; test: Collagen antibody-induced arthritis, plasma cytokine levels; assay type: in vivo, mouse; details: CAIA mice; 30 mg/kg
BAEC = test: Endothelial dual chamber migration assay toward VEGF-A165; assay type: cell-based, bovine; details: 1 μM; Transwell; 10% FBS and 50 ng/ml VEGF-A165 in lower chamber; 24 h
Procedure: Endothelial dual chamber migration assay. BAEC (6×10^3 cells/well) suspended in DMEM supplemented with 10% FBS were seeded into the upper chamber of 24-well plates fitted with Millicell cell culture inserts (cat. PI8P01250, Millipore). After 48 h, the medium was changed to DMEM supplemented with 0.01% FBS and the cells were incubated for 48 h. Compounds prepared in DMEM containing 0.01% FBS were added to the upper chamber. VEGF-A165 (50 ng/ml, Sigma, cat. V7259) in medium containing 10% FBS was added to the lower chamber. After 24 h, medium from the upper chamber was removed and a cotton swab was used to remove non-migrated cells and excess liquid. The insert was placed in 70% ethanol for 10 min to allow cell fixation and membranes were dried for 10-15 min. Filters were excised and placed on slides. Mounting medium (Fluoroshield™ with DAPI, Sigma, cat. 6057) was added and specimens were visualized using an EVOS FL microscope.

Structure (SMILES) | endothelial regrowth after mechanical injury in vitro (HMEC-1) | IL-1β-inducible FosB/ΔFosB expression (Western blot) (FosB/ΔFosB) | effect of serum in the diluent on solubility ([1]; adding serum to the diluent) | solubility in water (Solubility in water) | binding to His-MEK1 (SPR) [2] | binding to His-MEK2 (SPR) [3] | plasma level of IL-1β [4] | plasma level of IL-2 [4] | plasma level of IL-4 [4] | plasma level of IL-6 [4] | plasma level of IL-10 [4] | migration of BAEC toward VEGF-A165 (BAEC) | solubility relative to BT2 and analogues ([1]; dilution in medium containing serum)
CCOC(=O)Nc1ccc2c(c1)C(=O)N(CC)c1ccccc1O2 [BT2, (10-ethyl-11-oxo-10,11-dihydro-dibenzo[b,f][1,4]oxazepin-2-yl)-carbamic acid ethyl ester] | blocked this reparative response | inhibited | increased BT2 solubility | poorly soluble in water | bound to His-MEK1 significantly better than to His-MEK2 | bound to His-MEK1 significantly better than to His-MEK2 | reduced plasma levels of IL-1β, IL-2 and IL-6 to normal levels | reduced plasma levels of IL-1β, IL-2 and IL-6 to normal levels | did not change | reduced plasma levels of IL-1β, IL-2 and IL-6 to normal levels | did not change | inhibited migration | –
CCN1C(=O)c2cc(N)ccc2Oc2ccccc21 [BT3, 2-amino-10-ethyldibenzo[b,f][1,4]oxazepin-11 (10H)-one] | no such effect | – | – | – | no appreciable binding | no appreciable binding | – | – | – | – | – | neither BT3, nor PD98059 (allosteric MEK inhibitor), imatinib (tyrosine kinase inhibitor) or tofacitinib (Janus kinase inhibitor) had an inhibitory effect | the most soluble of all these dibenzoxazepinones
